Assay results reported in ChEMBL document CHEMBL4138123, “Design, synthesis and biological evaluation of novel pyrazolochalcones as potential modulators of PI3K/Akt/mTOR pathway and inducers of apoptosis in breast cancer cells” (Eur J Med Chem, 2017).

Legend:
Format in all cases: functional
[1] = test system: T47D; test: Cytotoxicity against human T47D cells assessed as cell growth at 0.1 uM after 48 hrs by sulforhodamine B assay relative to control; conditions: read-out: Activity
[2] = test system: HCT-116; test: Cytotoxicity against human HCT116 cells assessed as cell growth at 0.01 uM after 48 hrs by sulforhodamine B assay relative to control; conditions: HCT-116, 48 h, read-out: Activity
[3] = test system: CCRF-CEM; test: Cytotoxicity against human CCRF-CEM cells assessed as cell growth at 10 uM after 48 hrs by sulforhodamine B assay relative to control; conditions: read-out: Activity
[4] = test system: KM12; test: Cytotoxicity against human KM12 cells assessed as cell growth at 1 uM after 48 hrs by sulforhodamine B assay relative to control; conditions: KM12, 48 h, read-out: Activity
[5] = test system: PC-3; test: Cytotoxicity against human PC3 cells assessed as cell growth at 0.1 uM after 48 hrs by sulforhodamine B assay relative to control; conditions: PC-3, 48 h, read-out: Activity
[6] = test system: T47D; test: Cytotoxicity against human T47D cells assessed as cell growth at 0.01 uM after 48 hrs by sulforhodamine B assay relative to control; conditions: read-out: Activity
[7] = test system: SN12C; test: Cytotoxicity against human SN12C cells assessed as cell growth at 1 uM after 48 hrs by sulforhodamine B assay relative to control; conditions: read-out: Activity
[8] = test system: CCRF-CEM; test: Cytotoxicity against human CCRF-CEM cells assessed as cell growth at 100 uM after 48 hrs by sulforhodamine B assay relative to control; conditions: read-out: Activity
[9] = test system: MDA-MB-435; test: Cytotoxicity against human MDA-MB-435 cells assessed as cell growth at 1 uM after 48 hrs by sulforhodamine B assay relative to control; conditions: MDA-MB-435, 48 h, read-out: Activity
[10] = test system: SF-539; test: Cytotoxicity against human SF539 cells assessed as cell growth at 0.1 uM after 48 hrs by sulforhodamine B assay relative to control; conditions: SF-539, 48 h, read-out: Activity
[11] = test system: HCC 2998; test: Cytotoxicity against human HCC2998 cells assessed as cell growth at 100 uM after 48 hrs by sulforhodamine B assay relative to control; conditions: HCC 2998, 48 h, read-out: Activity
[12] = test system: RPMI-8226; test: Cytotoxicity against human RPMI8226 cells assessed as cell growth at 10 uM after 48 hrs by sulforhodamine B assay relative to control; conditions: RPMI-8226, 48 h, read-out: Activity
[13] = test system: SN12C; test: Cytotoxicity against human SN12C cells assessed as cell growth at 0.1 uM after 48 hrs by sulforhodamine B assay relative to control; conditions: read-out: Activity
[14] = test system: T47D; test: Cytotoxicity against human T47D cells assessed as growth inhibition after 48 hrs by sulforhodamine B assay
[15] = test system: PC-3; test: Cytotoxicity against human PC3 cells assessed as growth inhibition after 48 hrs by sulforhodamine B assay; conditions: PC-3, 48 h
[16] = test system: SF-539; test: Cytotoxicity against human SF539 cells assessed as cell growth at 1 uM after 48 hrs by sulforhodamine B assay relative to control; conditions: SF-539, 48 h, read-out: Activity
[17] = test system: SNB-19; test: Cytotoxicity against human SNB19 cells assessed as cell growth at 0.1 uM after 48 hrs by sulforhodamine B assay relative to control; conditions: SNB-19, 48 h, read-out: Activity
[18] = test system: TK-10; test: Cytotoxicity against human TK10 cells assessed as cell growth at 10 uM after 48 hrs by sulforhodamine B assay relative to control; conditions: TK-10, 48 h, read-out: Activity
[19] = test system: TK-10; test: Cytotoxicity against human TK10 cells assessed as cell growth at 0.1 uM after 48 hrs by sulforhodamine B assay relative to control; conditions: TK-10, 48 h, read-out: Activity
[20] = test system: MDA-MB-468; test: Cytotoxicity against human MDA-MB-468 cells assessed as cell growth at 100 uM after 48 hrs by sulforhodamine B assay relative to control; conditions: MDA-MB-468, 48 h, read-out: Activity
[21] = test system: HCT-15; test: Cytotoxicity against human HCT15 cells assessed as cell growth at 100 uM after 48 hrs by sulforhodamine B assay relative to control; conditions: HCT-15, 48 h, read-out: Activity
[22] = test system: NCI/ADR-RES; test: Cytotoxicity against human NCI/ADR-RES cells assessed as cell growth at 1 uM after 48 hrs by sulforhodamine B assay relative to control; conditions: read-out: Activity
[23] = test system: COLO 205; test: Cytotoxicity against human COLO205 cells assessed as cell growth at 1 uM after 48 hrs by sulforhodamine B assay relative to control; conditions: COLO 205, 48 h, read-out: Activity
[24] = test system: KM12; test: Cytotoxicity against human KM12 cells assessed as cell growth at 0.01 uM after 48 hrs by sulforhodamine B assay relative to control; conditions: KM12, 48 h, read-out: Activity
[25] = test system: OVCAR-3; test: Cytotoxicity against human OVCAR3 cells assessed as growth inhibition after 48 hrs by sulforhodamine B assay; conditions: OVCAR-3, 48 h
[26] = test system: Hs-578T; test: Cytotoxicity against human Hs 578T cells assessed as cell growth at 100 uM after 48 hrs by sulforhodamine B assay relative to control; conditions: read-out: Activity
[27] = test system: SF-268; test: Cytotoxicity against human SF268 cells assessed as cell growth at 100 uM after 48 hrs by sulforhodamine B assay relative to control; conditions: SF-268, 48 h, read-out: Activity
[28] = test system: SK-MEL-28; test: Cytotoxicity against human SK-MEL-28 cells assessed as growth inhibition after 48 hrs by sulforhodamine B assay; conditions: SK-MEL-28, 48 h
[29] = test system: 786-0; test: Cytotoxicity against human 786-0 cells assessed as cell growth at 10 uM after 48 hrs by sulforhodamine B assay relative to control; conditions: 786-0, 48 h, read-out: Activity
[30] = test system: SN12C; test: Cytotoxicity against human SN12C cells assessed as cell growth at 10 uM after 48 hrs by sulforhodamine B assay relative to control; conditions: read-out: Activity
[31] = test system: U-251; test: Cytotoxicity against human U251 cells assessed as cell growth at 0.01 uM after 48 hrs by sulforhodamine B assay relative to control; conditions: U-251, 48 h, read-out: Activity
[32] = test system: 786-0; test: Cytotoxicity against human 786-0 cells assessed as cell growth at 1 uM after 48 hrs by sulforhodamine B assay relative to control; conditions: 786-0, 48 h, read-out: Activity
[33] = test system: UACC-62; test: Cytotoxicity against human UACC62 cells assessed as cell growth at 1 uM after 48 hrs by sulforhodamine B assay relative to control; conditions: UACC-62, 48 h, read-out: Activity
[34] = test system: IGROV-1; test: Cytotoxicity against human IGROV1 cells assessed as cell growth at 1 uM after 48 hrs by sulforhodamine B assay relative to control; conditions: IGROV-1, 48 h, read-out: Activity
[35] = test system: SK-MEL-5; test: Cytotoxicity against human SK-MEL-5 cells assessed as cell growth at 100 uM after 48 hrs by sulforhodamine B assay relative to control; conditions: SK-MEL-5, 48 h, read-out: Activity
[36] = test system: NCI-H460; test: Cytotoxicity against human NCI-H460 cells assessed as cell growth at 0.1 uM after 48 hrs by sulforhodamine B assay relative to control; conditions: NCI-H460, 48 h, read-out: Activity

Structure (SMILES): COc1cc(-c2cc(/C=C/C(=O)c3ccc(F)c(F)c3)[nH]n2)cc(OC)c1OC
- growth at 0.1 µM [1]: 93%
- growth at 0.01 µM [2]: 101%
- growth at 10 µM [3]: 7%
- growth at 1 µM [4]: 95%
- growth at 0.1 µM [5]: 93%
- growth at 0.01 µM [6]: 95%
- growth at 1 µM [7]: 89%
- growth at 100 µM [8]: -4%
- growth at 1 µM [9]: 88%
- growth at 0.1 µM [10]: 97%
- growth at 100 µM [11]: -11%
- growth at 10 µM [12]: -21%
- growth at 0.1 µM [13]: 94%
- LC50 [14]: > 100 µM
- TGI [14]: 27 µM
- LC50 [15]: > 100 µM
- TGI [15]: 5.72 µM
- growth at 1 µM [16]: 90%
- growth at 0.1 µM [17]: 87%
- growth at 10 µM [18]: -13%
- growth at 0.1 µM [19]: 88%
- growth at 100 µM [20]: -26%
- growth at 100 µM [21]: 2%
- growth at 1 µM [22]: 95%
- growth at 1 µM [23]: 92%
- growth at 0.01 µM [24]: 96%
- LC50 [25]: 43.6 µM
- TGI [25]: 6.25 µM
- growth at 100 µM [26]: -16%
- growth at 100 µM [27]: 1%
- LC50 [28]: > 100 µM
- TGI [28]: 28.2 µM
- growth at 10 µM [29]: 11%
- growth at 10 µM [30]: 15%
- growth at 0.01 µM [31]: 97%
- growth at 1 µM [32]: 93%
- growth at 1 µM [33]: 88%
- growth at 1 µM [34]: 95%
- growth at 100 µM [35]: -88%
- growth at 0.1 µM [36]: 102%

Structure (SMILES): COc1ccc(-c2cc(/C=C/C(=O)c3cc(OC)c(OC)c(OC)c3)[nH]n2)cc1OC
- growth at 0.1 µM [1]: 83%
- growth at 0.01 µM [2]: 100%
- growth at 10 µM [3]: -15%
- growth at 1 µM [4]: 45%
- growth at 0.1 µM [5]: 93%
- growth at 0.01 µM [6]: 91%
- growth at 1 µM [7]: 87%
- growth at 100 µM [8]: -13%
- growth at 1 µM [9]: 85%
- growth at 0.1 µM [10]: 81%
- growth at 100 µM [11]: -82%
- growth at 10 µM [12]: -38%
- growth at 0.1 µM [13]: 99%
- GI50 [14]: 1.01 µM
- LC50 [14]: > 100 µM
- TGI [14]: 3.76 µM
- GI50 [15]: 1.99 µM
- LC50 [15]: 48.2 µM
- TGI [15]: 10.3 µM
- growth at 1 µM [16]: 17%
- growth at 0.1 µM [17]: 92%
- growth at 10 µM [18]: 7%
- growth at 0.1 µM [19]: 89%
- growth at 100 µM [20]: -58%
- growth at 100 µM [21]: -49%
- growth at 1 µM [22]: 81%
- growth at 1 µM [23]: 89%
- growth at 0.01 µM [24]: 99%
- GI50 [25]: 1.59 µM
- LC50 [25]: 6.23 µM
- TGI [25]: 3.15 µM
- growth at 100 µM [26]: -16%
- growth at 100 µM [27]: -72%
- GI50 [28]: 1.91 µM
- LC50 [28]: 10.6 µM
- TGI [28]: 4.41 µM
- growth at 10 µM [29]: -94%
- growth at 10 µM [30]: -62%
- growth at 0.01 µM [31]: 99%
- growth at 1 µM [32]: 81%
- growth at 1 µM [33]: 88%
- growth at 1 µM [34]: 93%
- growth at 100 µM [35]: -98%
- growth at 0.1 µM [36]: 100%

Structure (SMILES): COc1ccc(-c2cc(/C=C/C(=O)c3ccc(OC)c(OC)c3)[nH]n2)cc1
- growth at 0.1 µM [1]: 92%
- growth at 0.01 µM [2]: 97%
- growth at 10 µM [3]: -39%
- growth at 1 µM [4]: 70%
- growth at 0.1 µM [5]: 91%
- growth at 0.01 µM [6]: 95%
- growth at 1 µM [7]: 80%
- growth at 100 µM [8]: -47%
- growth at 1 µM [9]: 91%
- growth at 0.1 µM [10]: 94%
- growth at 100 µM [11]: -95%
- growth at 10 µM [12]: -56%
- growth at 0.1 µM [13]: 93%
- GI50 [14]: 1.6 µM
- LC50 [14]: 24.9 µM
- TGI [14]: 5.15 µM
- GI50 [15]: 1.45 µM
- LC50 [15]: 8.3 µM
- TGI [15]: 3.46 µM
- growth at 1 µM [16]: 66%
- growth at 0.1 µM [17]: 90%
- growth at 10 µM [18]: -59%
- growth at 0.1 µM [19]: 102%
- growth at 100 µM [20]: -76%
- growth at 100 µM [21]: -92%
- growth at 1 µM [22]: 91%
- growth at 1 µM [23]: 95%
- growth at 0.01 µM [24]: 105%
- GI50 [25]: 1.19 µM
- LC50 [25]: 5.15 µM
- TGI [25]: 2.47 µM
- growth at 100 µM [26]: -26%
- growth at 100 µM [27]: -63%
- GI50 [28]: 1.65 µM
- LC50 [28]: 5.74 µM
- TGI [28]: 3.07 µM
- growth at 10 µM [29]: -89%
- growth at 10 µM [30]: -58%
- growth at 0.01 µM [31]: 95%
- growth at 1 µM [32]: 86%
- growth at 1 µM [33]: 85%
- growth at 1 µM [34]: 77%
- growth at 100 µM [35]: -100%
- growth at 0.1 µM [36]: 101%
